The source made the active and inactive calls.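 Rule for the calls: active = compounds whose IC50 here is at most triple their IC50 in the earlier fluorescent lipid screen; inactive = the rest.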
Target: Diacylglycerol O-acyltransferase 1 (Homo sapiens) (UniProt O75907)
Assay: human DGAT-1 enzyme inhibitors, dose response, counter-screen for TAG accumulation inhibitor project, biochemical, recombinant hDGAT-1, [14C]-TAG formation, radiolabel (AID 743168)
Details: scintillation

Chain of Diacylglycerol O-acyltransferase 1 (Homo sapiens) (O75907 whole entry, looked up): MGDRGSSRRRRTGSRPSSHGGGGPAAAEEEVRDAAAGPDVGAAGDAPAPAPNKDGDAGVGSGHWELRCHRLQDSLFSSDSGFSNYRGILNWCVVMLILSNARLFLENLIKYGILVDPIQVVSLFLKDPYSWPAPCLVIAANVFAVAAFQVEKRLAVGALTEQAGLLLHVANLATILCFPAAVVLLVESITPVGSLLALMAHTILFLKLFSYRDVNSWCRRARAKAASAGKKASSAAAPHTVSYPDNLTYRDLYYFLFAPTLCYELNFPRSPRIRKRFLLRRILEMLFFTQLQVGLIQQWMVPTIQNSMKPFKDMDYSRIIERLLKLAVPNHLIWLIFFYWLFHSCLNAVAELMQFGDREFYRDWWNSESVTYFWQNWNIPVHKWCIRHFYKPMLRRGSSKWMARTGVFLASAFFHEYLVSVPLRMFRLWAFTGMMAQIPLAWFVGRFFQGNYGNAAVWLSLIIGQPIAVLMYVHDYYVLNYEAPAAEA

IC50 | SMILES
> 50 µM (inactive) | CCCCN1Cc2cccc(C(=O)Nc3cccc(-c4nc5ccccc5[nH]4)c3)c2C1=O
> 50 µM (inactive) | CCOCCN1Cc2cccc(C(=O)Nc3cccc(-c4nc5ccccc5[nH]4)c3)c2C1=O
> 50 µM (inactive) | COCCN1Cc2cccc(C(=O)Nc3cccc(-c4nc5ccccc5[nH]4)c3)c2C1=O
> 50 µM (inactive) | O=C(Nc1cccc(-c2nc3ccccc3[nH]2)c1)c1cccc2c1C(=O)N(CCOc1ccccc1)C2
> 50 µM (inactive) | O=C(Nc1cccc(-c2nc3ccccc3[nH]2)c1)c1cccc2c1C(=O)N(CC1CC1)C2
